Calls of active or inactive are those of the source. The calls are words filed in the database; no cut-off is given here.
Experiments:
MIA PaCa-2 [1] = experiment: Antitumor activity against human MIA PaCa-2 cells xenografted in BALB/c/Nu/Nu mouse assessed as reduction in tumor cell density at 60 mg/kg, ip administered 5 times a week for 4 weeks by H and E staining based analysis; format: functional, organism-based
MIA PaCa-2 [2] = experiment: Induction of endoplasmic reticulum (ER) stress in human MIA PaCa-2 cells in NDM medium assessed as change in TRB3 level at 5 uM measured after 6 hrs by Western blot analysis; format: functional, cell-based
MIA PaCa-2 [3] = experiment: Antimetastatic activity in human MIA PaCa-2 cells in DMEM media assessed as inhibition of colony formation incubated for 24 hrs by crystal violet staining-based assay; format: functional, cell-based; settings: dose 5-20 µM
MIA PaCa-2 [4] = experiment: Antitumor activity against human MIA PaCa-2 cells xenografted in BALB/c/Nu/Nu mouse assessed as tumor volume at 20 mg/kg, ip administered 5 times a week for 4 weeks and measured on day 32 (reference value: 1417 mm3); format: functional; settings: time 32 day
[5] = Modulation of PI3K/AKT/mTOR signalling pathway in human MIA PaCa-2 cells in DMEM medium assessed as downregulation of GRP78 expression incubated for 24 hrs in presence of gemcitabine by Western blot analysis; format: cell-based; settings: filed as modulator, dose 1-5 µM
Mus musculus [6] = experiment: In-vivo modulation of PI3K/AKT/mTOR signalling pathway in human MIA PaCa-2 cells xenografted in BALB/c/Nu/Nu mouse assessed as downregulation of GRP78 level at 60 mg/kg, ip administered 5 times a week for 4 weeks in presence of gemcitabine by Western blot analysis; format: functional, organism-based
MIA PaCa-2 [7] = experiment: Antitumor activity against human MIA PaCa-2 cells xenografted in BALB/c/Nu/Nu mouse assessed as reduction in number of blood vessels in skin at 20 mg/kg, ip administered 5 times a week for 4 weeks; format: functional, organism-based
MIA PaCa-2 [8] = experiment: Induction of endoplasmic reticulum (ER) stress in human MIA PaCa-2 cells xenografted in BALB/c/Nu/Nu mouse assessed as downregulation of GRP78 expression in presence of gemcitabine by immunohistochemistry analysis; format: functional, cell-based
[9] = Modulation of PI3K/AKT/mTOR signalling pathway in human MIA PaCa-2 cells in DMEM medium assessed as decrease in Akt phosphorylation at 5 uM measured for 6 hrs by Western blot analysis; format: cell-based; settings: filed as modulator
MIA PaCa-2 [10] = experiment: Antimetastatic activity in human MIA PaCa-2 cells in DMEM media assessed as reduction in colony area at 5 uM incubated for 24 hrs by crystal violet staining-based assay (reference value: 37%); format: functional; parameters: scale not given: the % may be the effect or the level left
[11] = Modulation of PI3K/AKT/mTOR signalling pathway in human MIA PaCa-2 cells in DMEM medium assessed as downregulation of AKT expression incubated for 24 hrs in presence of gemcitabine by Western blot analysis; format: cell-based; settings: filed as modulator, dose 1-5 µM
Mus musculus [12] = experiment: In-vivo modulation of PI3K/AKT/mTOR signalling pathway in human MIA PaCa-2 cells xenografted in BALB/c/Nu/Nu mouse assessed as downregulation of mTOR phosphorylation at 60 mg/kg, ip administered 5 times a week for 4 weeks in presence of gemcitabine by Western blot analysis; format: functional, organism-based
MIA PaCa-2 [13] = experiment: Antitumor activity against human MIA PaCa-2 cells xenografted in BALB/c/Nu/Nu mouse assessed as reduction in final tumor weight at 20 mg/kg, ip administered 5 times a week for 4 weeks (reference value: […]); format: functional
MIA PaCa-2 [14] = experiment: Antimetastatic activity in human MIA PaCa-2 cells in DMEM media assessed as reduction in colony area at 10 uM incubated for 24 hrs by crystal violet staining-based assay; format: functional; parameters: scale not given: the % may be the effect or the level left
MIA PaCa-2 [15] = experiment: Induction of endoplasmic reticulum (ER) stress in human MIA PaCa-2 cells assessed as reduction in GRP78 expression at 5 uM measured after 6 hrs by Western blot analysis; format: functional, cell-based
Mus musculus [16] = experiment: In-vivo modulation of PI3K/AKT/mTOR signalling pathway in human MIA PaCa-2 cells xenografted in BALB/c/Nu/Nu mouse assessed as downregulation of Akt phosphorylation at 60 mg/kg, ip administered 5 times a week for 4 weeks in presence of gemcitabine by Western blot analysis; format: functional, organism-based
MIA PaCa-2 [17] = experiment: Preferential cytotoxicity against human MIA PaCa-2 cells in nutrient-deprived medium assessed as alteration in cell morphology by measuring cell rounding at 0.5 to 1 uM measured after 24 hrs by acridine orange and ethidium bromide dual fluorescent staining based microscopic analysis; format: functional; settings: dose 0.5-1 µM
MIA PaCa-2 [18] = experiment: Preferential cytotoxicity against human MIA PaCa-2 cells in nutrient-deprived medium assessed as alteration in cell morphology by measuring membrane rupture at 0.5 to 1 uM measured after 24 hrs by acridine orange and ethidium bromide dual fluorescent staining based microscopic analysis; format: functional; settings: dose 0.5-1 µM
PANC-1 [19] = experiment: Preferential cytotoxicity against human PANC-1 cells in nutrient-deprived medium measured after 24 hrs by WST-8 cell counting analysis; format: functional
MIA PaCa-2 [20] = experiment: Antimetastatic activity in human MIA PaCa-2 cells in DMEM media assessed as inhibition of cell migration at 10 uM incubated for 36 hrs relative to control (reference value: 30%); format: functional
MIA PaCa-2 [21] = experiment: Antitumor activity against human MIA PaCa-2 cells xenografted in BALB/c/Nu/Nu mouse assessed as tumor volume at 60 mg/kg, ip administered 5 times a week for 4 weeks and measured on day 32 in presence of gemcitabine (reference value: 1417 mm3); format: functional; settings: time 32 day
MIA PaCa-2 [22] = experiment: Preferential cytotoxicity against human MIA PaCa-2 cells in DMEM measured after 24 hrs by WST-8 cell counting analysis; format: functional, cell-based; settings: MIA PaCa-2, 24 h
Mus musculus [23] = experiment: In-vivo modulation of PI3K/AKT/mTOR signalling pathway in human MIA PaCa-2 cells xenografted in BALB/c/Nu/Nu mouse assessed as downregulation of CHOP level at 60 mg/kg, ip administered 5 times a week for 4 weeks in presence of gemcitabine by Western blot analysis; format: functional, organism-based
MIA PaCa-2 [24] = experiment: Preferential cytotoxicity against human MIA PaCa-2 cells in nutrient-deprived medium measured after 24 hrs by WST-8 cell counting analysis; format: functional
[25] = Modulation of PI3K/AKT/mTOR signalling pathway in human MIA PaCa-2 cells in DMEM medium assessed as decrease in mTOR phosphorylation at 5 uM measured for 6 hrs by Western blot analysis; format: cell-based; settings: filed as modulator
PANC-1 [26] = experiment: Preferential cytotoxicity against human PANC-1 cells in DMEM measured after 24 hrs by WST-8 cell counting analysis; format: functional, cell-based; settings: PANC-1, 24 h
MIA PaCa-2 [27] = experiment: Synergistic antitumor activity against human MIA PaCa-2 cells xenografted in BALB/c/Nu/Nu mouse assessed as increase in pleomorphism at 60 mg/kg, ip administered 5 times a week for 4 weeks by H and E staining based analysis; format: functional, organism-based
[28] = Toxicity in BALB/c/Nu/Nu mouse xenografted with human MIA PaCa-2 cells assessed as change in body weight at 20 mg/kg, ip administered 5 times a week for 4 weeks; format: organism-based; settings: in vivo, 672 h
[29] = Toxicity in BALB/c/Nu/Nu mouse xenografted with human MIA PaCa-2 cells assessed as change in abdominal organs at 60 mg/kg, ip administered 5 times a week for 4 weeks; format: organism-based; settings: in vivo, 672 h

**Q.** Which Activity (MIA PaCa-2 [1]) does the source give for `CC(C)=CCCC1=CC[C@H](C(=O)c2c(O)cccc2O)[C@@H](c2cccc(F)c2F)C1` (relative stereo) here?
**A.** Active

**Q.** And the Activity (MIA PaCa-2 [2])?
**A.** Active

**Q.** And the Activity (MIA PaCa-2 [3])?
**A.** Dose-Dependent Effect

**Q.** And the Activity (MIA PaCa-2 [4])?
**A.** 879 mm3

**Q.** What about the Activity [5] of the same compound?
**A.** Dose-Dependent Effect

**Q.** What about the Activity (Mus musculus [6]) of the same compound?
**A.** Active

**Q.** What about the Activity (MIA PaCa-2 [7]) of the same compound?
**A.** Active

**Q.** And the Activity (MIA PaCa-2 [8])?
**A.** Active

**Q.** What about the Activity [9] of the same compound?
**A.** Active

**Q.** And the Activity (MIA PaCa-2 [10])?
**A.** 14%

**Q.** And the Activity [11]?
**A.** Dose-Dependent Effect

**Q.** And the Activity (Mus musculus [12])?
**A.** Active

**Q.** What about the Activity (MIA PaCa-2 [13]) of the same compound?
**A.** 321 mg

**Q.** And the Activity (MIA PaCa-2 [14])?
**A.** 91%

**Q.** What about the Activity (MIA PaCa-2 [15]) of the same compound?
**A.** Active

**Q.** And the Activity (Mus musculus [16])?
**A.** Active

**Q.** What about the Activity (MIA PaCa-2 [17]) of the same compound?
**A.** Active

**Q.** And the Activity (MIA PaCa-2 [18])?
**A.** Active

**Q.** What about the PC50 (PANC-1 [19]) of the same compound?
**A.** 0.23 µM

**Q.** What about the inhibition at 10 µM (MIA PaCa-2 [20]) of the same compound?
**A.** 77%

**Q.** What about the Activity (MIA PaCa-2 [21]) of the same compound?
**A.** 528 mm3

**Q.** And the IC50 (MIA PaCa-2 [22])?
**A.** 60.2 µM

**Q.** And the Activity (Mus musculus [23])?
**A.** Active

**Q.** What about the PC50 (MIA PaCa-2 [24]) of the same compound?
**A.** 0.34 µM

**Q.** What about the Activity [25] of the same compound?
**A.** Active

**Q.** What about the IC50 (PANC-1 [26]) of the same compound?
**A.** 9.2 µM

**Q.** What about the Activity (MIA PaCa-2 [27]) of the same compound?
**A.** Active

**Q.** And the Activity [28]?
**A.** Non-Toxic

**Q.** And the Activity [29]?
**A.** Non-Toxic
